In one experiment the target is HarmOR35 (Helicoverpa armigera, UniProt A0A7T3N1A8). The experiment is described as follows: Xenopus oocyte two-electrode voltage clamp, HarmOR35 + Orco. The class given is cell-based. The protocol:
(§1) In order to expand our analysis on the response properties of HarmORs, we conducted dose–response analyses for the 28 functional HarmORs. […] Six HarmORs (OR3, 22, 48, 50, 56, and 66) could not be activated by any ligand at 10^−5 M. For the other 22 HarmORs, dose–response curves were generated and EC50 values of their major ligands were calculated (fig. 2A and supplementary table S2, Supplementary Material online). The HarmOR repertoire was highly efficient in terpene detection, since the lowest EC50 values were obtained for such compounds. Many of these terpenes have been proposed to be defensive chemicals of plants. […] DMNT is also one of the oviposition deterring compounds found in larval frass of some Lepidoptera species such as S. littoralis ([Anderson et al. 1993]).
(§2) Functional characterization of individual ORs was performed by heterologous expression in Xenopus oocytes combined with a two-electrode voltage-clamp system ([Wang et al. 2010]). […] After incubation in nutrient solution at 18 °C for 3–5 days, the response profile of each oocyte to multiple plant odorants was recorded via a two-electrode voltage clamp (OC-725C oocyte clamp, Warner Instruments, Hamden, CT) at a holding potential of −80 mV. Data were acquired by using a Digidata 1440 A and were analyzed by pCLAMP 10.2 software (Axon Instruments Inc., Union City, CA). […]
A general note: Two-electrode voltage clamp holds a large cell at a set potential and records current.

The target of another experiment is HarmOR63 (Helicoverpa armigera, UniProt A0A7T3N0P9). The experiment is described as follows: Xenopus oocyte two-electrode voltage clamp, HarmOR63 + Orco. The class given is cell-based. The note with it: dose response in oocytes, unit M. The protocol: as §1, §2
The target in a further experiment is HarmOR26 (Helicoverpa armigera, UniProt A0A075T633). The experiment is described as follows: Xenopus oocyte two-electrode voltage clamp, HarmOR26 + Orco. Conditions: dose response in oocytes, unit M printed in b12 only. The class given is cell-based. The protocol: as §1, §2
In the next experiment the target is T1, HarmOR40 (Helicoverpa armigera, UniProt A0A7T3KBF4).
T1 sequence (A0A7T3KBF4 1-401): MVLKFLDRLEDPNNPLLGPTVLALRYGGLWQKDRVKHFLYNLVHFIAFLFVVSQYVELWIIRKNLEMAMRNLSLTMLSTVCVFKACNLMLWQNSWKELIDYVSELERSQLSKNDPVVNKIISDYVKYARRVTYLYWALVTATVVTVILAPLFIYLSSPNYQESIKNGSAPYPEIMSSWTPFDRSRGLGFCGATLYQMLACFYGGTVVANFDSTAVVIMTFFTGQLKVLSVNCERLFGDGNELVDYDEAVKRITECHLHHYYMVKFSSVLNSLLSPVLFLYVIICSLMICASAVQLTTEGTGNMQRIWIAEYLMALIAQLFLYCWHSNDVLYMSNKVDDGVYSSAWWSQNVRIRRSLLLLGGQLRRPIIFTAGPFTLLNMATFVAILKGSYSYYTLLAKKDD
Kind of experiment: Xenopus oocyte two-electrode voltage clamp, HarmOR40 + Orco. The class given is cell-based. Conditions: HarmOR40; dose response in oocytes; unit M printed in text only; read-out: EC50. The protocol: as §1
(§3) Functional characterization of individual ORs was performed by heterologous expression in Xenopus oocytes combined with a two-electrode voltage-clamp system ([Wang et al. 2010]). Briefly, the full-length gene of each OR and Orco were subcloned into the eukaryotic expression vector pT7TS. cRNAs were generated from linearized expression vectors using the mMESSAGE mMACHINE T7 kit (Ambion, Austin, TX). Then, the cRNA mixture of ORx and Orco (27.6 ng each) was injected (Nanoliter 2010, WPI Inc., Sarasota, FL) into oocytes (stage V–VII). The respective Orcos of different species were used for functional studies of OR42 orthologs except for the four butterfly species (V. tameamea, P. xuthus, D. plexippus, and P. rapae), in which we used the Orco from P. xuthus. After incubation in nutrient solution at 18 °C for 3–5 days, the response profile of each oocyte to multiple plant odorants was recorded via a two-electrode voltage clamp (OC-725C oocyte clamp, Warner Instruments, Hamden, CT) at a holding potential of −80 mV. Data were acquired by using a Digidata 1440 A and were analyzed by pCLAMP 10.2 software (Axon Instruments Inc., Union City, CA).
(§4) Stock solutions of each odorant were prepared at 1 M using DMSO as a solvent, and each odorant was diluted in 1× Ringer’s solution to the indicated concentrations for electrophysiological recording. For functional screening of each HarmOR, a panel of 67 odorants belonging to three types of chemical classes: terpenes, aromatics, and aliphatics (short-chain fatty acid) were used (supplementary table S1, Supplementary Material online). For functional studies of OR42 orthologs from different species, six odorants including PAA, benzaldehyde, (E)-2-hexen-1-al, cinnamaldehyde, 2-phenylethanol, and heptanal were used.

The target in another experiment is HarmOR55 (Helicoverpa armigera, UniProt A0A7T3N2G6). Kind of experiment: Xenopus oocyte two-electrode voltage clamp, HarmOR55 + Orco. Conditions: dose response in oocytes, unit M. The class given is cell-based. As to the method:
as §1, §2

The subject of another experiment is HarmOR repertoire. The experiment is described as follows: Responses of the 28 functional HarmORs across odorant doses (PCA of oocyte currents). The class given is cell-based, Helicoverpa armigera. Conditions: odorant 10^−7 M.
Source text: Vectors quantifying the responses of the 28 ORs to each odorant were projected onto a 3D landscape. This 3D representation captured 78.34% (10^−4 M), 65.11% (10^−5 M), 68.89% (10^−6 M), and 84.52% (10^−7 M) of the variation in the original 28D data set across different odorant concentrations. […] In addition, the capacity of the H. armigera odor space was highly dependent on odorant concentration. As the concentrations of odorants decreased, their positions in the odor space converged, with the ability to discriminate different odorants diminishing.
as §3, §4
Graphs and data statistics of OR response spectra, dose responses, EAG, and behavioral experiments were generated by Prism 7 (GraphPad Software, La Jolla, CA). A heat map was generated in Excel 2010 (Microsoft Corporation, WA). […] For tuning breadth analysis, the kurtosis values (K) were calculated by SPSS 22 (SPSS Inc., Chicago, IL) and were used to define the tuning spectra width, where smaller K values represent broader tuning spectra (fig. 1B). […]

The target of a further experiment is HarmOR7 (Helicoverpa armigera, UniProt A0A7T3KAD7). Kind of experiment: Xenopus oocyte two-electrode voltage clamp, HarmOR7 + Orco. The class given is cell-based. As to the method:
as §1, §2

For a further experiment, the target named is T2, HarmOR60 (Helicoverpa armigera, UniProt A0A7T3N1B9).
T2 sequence (A0A7T3N1B9 1-391): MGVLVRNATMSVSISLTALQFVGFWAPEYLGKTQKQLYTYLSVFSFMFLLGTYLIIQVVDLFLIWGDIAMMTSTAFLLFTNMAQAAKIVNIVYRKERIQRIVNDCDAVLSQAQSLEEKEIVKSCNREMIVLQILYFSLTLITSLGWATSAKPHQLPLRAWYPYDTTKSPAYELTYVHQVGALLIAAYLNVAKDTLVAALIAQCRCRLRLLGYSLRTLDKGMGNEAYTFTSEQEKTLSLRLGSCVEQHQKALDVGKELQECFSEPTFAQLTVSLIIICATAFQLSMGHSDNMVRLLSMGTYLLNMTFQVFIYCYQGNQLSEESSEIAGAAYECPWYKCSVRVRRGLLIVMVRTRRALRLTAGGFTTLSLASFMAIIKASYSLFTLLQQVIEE
The experiment is described as follows: Xenopus oocyte two-electrode voltage clamp, HarmOR60 + Orco. The class given is cell-based. The protocol:
as §1
as §3, with “CA). […]” for “CA).”

In a further experiment the target is HarmOR29 (Helicoverpa armigera, UniProt A0A7T3KAG0). Kind of experiment: Xenopus oocyte two-electrode voltage clamp, HarmOR29 + Orco. The class given is cell-based. Conditions: dose response in oocytes, unit M. The protocol: as §1, §2
Another experiment deals with HarmOR25 (Helicoverpa armigera, UniProt A0A7T3KAG7). The experiment is described as follows: Xenopus oocyte two-electrode voltage clamp, HarmOR25 + Orco. The class given is cell-based. The protocol: as §1, §2
A further experiment deals with T3, HarmOR43 (Helicoverpa armigera, UniProt A0A7T3KAF8).
T3 sequence (A0A7T3KAF8 1-415): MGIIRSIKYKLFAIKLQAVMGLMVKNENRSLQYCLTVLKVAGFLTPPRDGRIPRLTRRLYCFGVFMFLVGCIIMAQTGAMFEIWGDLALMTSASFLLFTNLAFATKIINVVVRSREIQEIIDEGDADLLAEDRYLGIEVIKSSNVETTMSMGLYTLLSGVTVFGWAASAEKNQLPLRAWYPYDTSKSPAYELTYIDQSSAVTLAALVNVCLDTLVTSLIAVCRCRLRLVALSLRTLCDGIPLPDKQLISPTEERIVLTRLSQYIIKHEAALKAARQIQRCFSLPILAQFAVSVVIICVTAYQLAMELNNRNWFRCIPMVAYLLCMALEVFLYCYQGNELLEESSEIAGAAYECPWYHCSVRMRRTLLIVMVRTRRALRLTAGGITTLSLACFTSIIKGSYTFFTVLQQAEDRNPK
The experiment is described as follows: Xenopus oocyte two-electrode voltage clamp, HarmOR43 + Orco. The class given is cell-based. Conditions: dose response in oocytes, unit M. As to the method:
as §1
as §3, with “CA). […]” for “CA).”

The next experiment addresses HarmOR8 (Helicoverpa armigera, UniProt A0A7T3N2E2). Kind of experiment: Xenopus oocyte two-electrode voltage clamp, HarmOR8 + Orco. The class given is cell-based. Conditions: dose response in oocytes, unit M. As to the method: as §1, §2
Another experiment addresses HarmOR31 (Helicoverpa armigera, UniProt A0A7T3N2E9). The experiment is described as follows: Xenopus oocyte two-electrode voltage clamp, HarmOR31 + Orco. The class given is cell-based.
Source text: In order to expand our analysis on the response properties of HarmORs, we conducted dose–response analyses for the 28 functional HarmORs. […] Many of these terpenes have been proposed to be defensive chemicals of plants.
Briefly, the full-length gene of each OR and Orco were subcloned into the eukaryotic expression vector pT7TS. cRNAs were generated from linearized expression vectors using the mMESSAGE mMACHINE T7 kit (Ambion, Austin, TX). […] The respective Orcos of different species were used for functional studies of OR42 orthologs except for the four butterfly species (V. tameamea, P. xuthus, D. plexippus, and P. rapae), in which we used the Orco from P. xuthus.
as §4

Like-named read-outs stand apart in the source and are kept apart here.

Chain of HarmOR29 (A0A7T3KAG0 1-395): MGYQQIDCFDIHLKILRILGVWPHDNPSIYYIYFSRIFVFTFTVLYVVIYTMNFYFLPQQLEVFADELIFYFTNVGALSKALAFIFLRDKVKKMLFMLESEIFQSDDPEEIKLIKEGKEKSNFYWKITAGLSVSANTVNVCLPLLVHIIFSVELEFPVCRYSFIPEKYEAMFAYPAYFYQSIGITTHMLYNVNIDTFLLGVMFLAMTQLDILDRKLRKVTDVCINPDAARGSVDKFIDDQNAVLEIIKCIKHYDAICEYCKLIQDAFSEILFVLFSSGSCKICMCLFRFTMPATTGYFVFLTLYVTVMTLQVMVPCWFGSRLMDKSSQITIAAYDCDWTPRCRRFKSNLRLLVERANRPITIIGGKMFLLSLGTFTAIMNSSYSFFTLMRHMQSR
Chain of HarmOR35 (A0A7T3N1A8 entry or part of it): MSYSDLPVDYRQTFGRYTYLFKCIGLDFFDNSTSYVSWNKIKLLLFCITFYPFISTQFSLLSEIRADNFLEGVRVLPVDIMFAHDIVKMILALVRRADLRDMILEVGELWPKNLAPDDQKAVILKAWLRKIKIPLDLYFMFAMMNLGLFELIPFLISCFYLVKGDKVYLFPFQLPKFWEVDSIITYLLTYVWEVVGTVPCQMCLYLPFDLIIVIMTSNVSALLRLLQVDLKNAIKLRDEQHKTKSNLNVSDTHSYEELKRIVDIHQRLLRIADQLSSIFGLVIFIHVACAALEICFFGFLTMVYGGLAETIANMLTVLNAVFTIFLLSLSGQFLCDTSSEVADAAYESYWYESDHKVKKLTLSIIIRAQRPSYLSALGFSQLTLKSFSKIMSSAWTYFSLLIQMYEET
Chain of HarmOR63 (A0A7T3N0P9 1-407): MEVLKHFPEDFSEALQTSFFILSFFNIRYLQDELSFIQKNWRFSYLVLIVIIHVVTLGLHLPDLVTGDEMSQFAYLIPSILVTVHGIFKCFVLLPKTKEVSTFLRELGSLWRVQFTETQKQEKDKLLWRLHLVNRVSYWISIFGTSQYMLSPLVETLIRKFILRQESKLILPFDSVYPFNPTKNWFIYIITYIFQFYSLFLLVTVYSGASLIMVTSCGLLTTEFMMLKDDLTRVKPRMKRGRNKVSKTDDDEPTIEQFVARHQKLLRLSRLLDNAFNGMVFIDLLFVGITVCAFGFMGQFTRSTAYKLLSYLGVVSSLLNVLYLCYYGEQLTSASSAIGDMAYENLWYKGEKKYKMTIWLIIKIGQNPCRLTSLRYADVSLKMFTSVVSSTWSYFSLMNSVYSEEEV
Chain of HarmOR7 (A0A7T3KAD7 1-411): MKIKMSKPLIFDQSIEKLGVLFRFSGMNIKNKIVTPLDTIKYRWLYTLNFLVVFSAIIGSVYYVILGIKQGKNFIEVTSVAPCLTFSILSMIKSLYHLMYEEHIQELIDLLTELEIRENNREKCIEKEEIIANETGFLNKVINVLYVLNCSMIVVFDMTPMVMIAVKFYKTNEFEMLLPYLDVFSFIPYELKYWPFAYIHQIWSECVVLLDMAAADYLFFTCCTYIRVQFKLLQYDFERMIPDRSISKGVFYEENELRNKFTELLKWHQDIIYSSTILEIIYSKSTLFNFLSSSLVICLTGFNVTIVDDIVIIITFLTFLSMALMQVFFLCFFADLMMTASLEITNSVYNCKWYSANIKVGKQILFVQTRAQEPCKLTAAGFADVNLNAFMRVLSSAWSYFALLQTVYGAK
Chain of HarmOR25 (A0A7T3KAG7 1-398): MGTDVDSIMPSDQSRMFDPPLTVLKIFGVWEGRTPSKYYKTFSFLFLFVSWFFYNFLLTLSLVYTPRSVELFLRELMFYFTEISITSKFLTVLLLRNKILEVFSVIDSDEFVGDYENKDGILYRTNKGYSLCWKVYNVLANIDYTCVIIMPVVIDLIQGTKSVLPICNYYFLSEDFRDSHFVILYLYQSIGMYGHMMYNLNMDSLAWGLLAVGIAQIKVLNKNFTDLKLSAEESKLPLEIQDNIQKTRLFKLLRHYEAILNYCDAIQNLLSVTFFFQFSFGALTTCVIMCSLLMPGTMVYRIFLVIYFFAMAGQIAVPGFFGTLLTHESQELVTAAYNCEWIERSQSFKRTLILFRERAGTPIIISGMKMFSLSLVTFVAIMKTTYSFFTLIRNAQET
Chain of HarmOR8 (A0A7T3N2E2 1-406): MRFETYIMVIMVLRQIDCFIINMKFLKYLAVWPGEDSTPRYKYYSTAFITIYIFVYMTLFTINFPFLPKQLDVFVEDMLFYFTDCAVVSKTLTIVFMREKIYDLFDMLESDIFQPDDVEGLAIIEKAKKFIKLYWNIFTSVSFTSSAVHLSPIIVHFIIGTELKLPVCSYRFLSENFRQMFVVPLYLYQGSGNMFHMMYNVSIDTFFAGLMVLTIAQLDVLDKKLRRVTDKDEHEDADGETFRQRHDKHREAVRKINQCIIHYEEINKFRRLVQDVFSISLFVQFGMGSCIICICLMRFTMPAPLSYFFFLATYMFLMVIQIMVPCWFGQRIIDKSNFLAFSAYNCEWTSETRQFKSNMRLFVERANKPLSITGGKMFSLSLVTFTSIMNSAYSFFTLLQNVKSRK
Chain of HarmOR26 (A0A075T633 1-408): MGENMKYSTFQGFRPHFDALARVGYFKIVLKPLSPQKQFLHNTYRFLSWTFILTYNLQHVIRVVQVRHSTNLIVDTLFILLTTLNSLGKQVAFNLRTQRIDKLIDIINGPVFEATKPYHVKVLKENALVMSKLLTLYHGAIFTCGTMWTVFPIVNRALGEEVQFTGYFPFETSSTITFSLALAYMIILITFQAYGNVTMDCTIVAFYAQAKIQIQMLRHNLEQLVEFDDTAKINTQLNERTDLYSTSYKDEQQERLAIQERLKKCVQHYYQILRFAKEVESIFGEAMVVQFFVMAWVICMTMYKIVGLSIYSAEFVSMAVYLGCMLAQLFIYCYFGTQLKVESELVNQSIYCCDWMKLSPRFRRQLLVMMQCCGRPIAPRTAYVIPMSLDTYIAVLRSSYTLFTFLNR
Chain of HarmOR31 (A0A7T3N2E9 entry or part of it): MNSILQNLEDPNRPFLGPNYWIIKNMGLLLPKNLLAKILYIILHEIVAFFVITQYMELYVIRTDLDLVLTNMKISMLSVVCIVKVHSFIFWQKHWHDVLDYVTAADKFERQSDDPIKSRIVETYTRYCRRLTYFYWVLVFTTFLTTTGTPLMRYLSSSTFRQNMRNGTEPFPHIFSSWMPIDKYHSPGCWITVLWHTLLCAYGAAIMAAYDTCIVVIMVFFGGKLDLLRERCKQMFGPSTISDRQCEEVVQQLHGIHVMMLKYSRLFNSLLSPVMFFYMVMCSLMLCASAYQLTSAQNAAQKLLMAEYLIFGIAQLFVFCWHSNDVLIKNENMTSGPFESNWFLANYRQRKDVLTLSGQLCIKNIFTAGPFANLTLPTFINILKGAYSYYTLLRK
Chain of HarmOR55 (A0A7T3N2G6 entry or part of it): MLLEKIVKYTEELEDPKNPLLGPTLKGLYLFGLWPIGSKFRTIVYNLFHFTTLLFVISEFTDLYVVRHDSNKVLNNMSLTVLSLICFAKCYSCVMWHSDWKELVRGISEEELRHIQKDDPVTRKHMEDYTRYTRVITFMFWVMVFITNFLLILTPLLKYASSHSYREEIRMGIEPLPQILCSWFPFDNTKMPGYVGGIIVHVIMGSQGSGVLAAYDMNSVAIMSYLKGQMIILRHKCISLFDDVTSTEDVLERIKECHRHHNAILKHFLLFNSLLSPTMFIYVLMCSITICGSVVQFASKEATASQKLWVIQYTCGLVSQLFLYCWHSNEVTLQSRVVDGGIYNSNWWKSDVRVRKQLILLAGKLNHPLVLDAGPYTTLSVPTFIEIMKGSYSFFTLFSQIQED

For `CC1(C)[C@H]2CC=C(C=O)[C@@H]1C2` [(1R)-(-)-Myrtenal], the concentration giving a half-maximal response (EC50) on HarmOR35 (HarmOR35, dose response in oocytes, unit M, read-out: EC50) turned out to be 255 µM.

With `C=C1CC[C@H]2O[C@]2(C)CC[C@@H]2[C@@H]1CC2(C)C` [(-)-Caryophyllene oxide], on HarmOR63, the EC50 came out at 52.1 µM.

For the compound `C=C1CC/C=C(\C)CC[C@@H]2[C@@H]1CC2(C)C` [(-)-trans-Caryophyllene], the 50% effective concentration (EC50) on HarmOR63 was 88.2 µM.

`C=CC(C)(O)CC/C=C(\C)CCC=C(C)C` (stereo not shown) [(E)-Nerolidol]: the EC50 turned out to be 28.9 nM on HarmOR26, 12.5 µM on HarmOR40 and 88.1 µM at HarmOR55. The “response of the HarmOR repertoire” value with HarmOR repertoire is listed as “still responded”.

Consider `CC(=O)OCc1ccccc1` [Benzyl acetate], for which the EC50 on HarmOR7 (HarmOR7, dose response in oocytes, unit M, read-out: EC50) worked out at 60.7 µM.

`C=CCc1ccc(O)c(OC)c1` [Eugenol]: the EC50 on HarmOR60 (HarmOR60, dose response in oocytes, unit M) was 1720 nM; on HarmOR29, 18.9 µM; on HarmOR35, 42.5 µM; on HarmOR25 (HarmOR25, dose response in oocytes, unit M), 81.6 µM. Besides, the “main ligand of HarmOR60” value at HarmOR60 (clade B) is “main ligand”. The “main ligand of HarmOR25” value at HarmOR25 (clade E) was “main ligand”.

Regarding `COC(=O)c1ccc(O)cc1` [Methyl 4-hydroxybenzoate], the EC50 worked out at 19.6 µM at HarmOR43 and 178 µM on HarmOR29.

As to `C=CCc1ccc(OC)c(OC)c1` [Methyl eugenol], the concentration giving a half-maximal response (EC50) at HarmOR8 was determined as 106 µM.

With `COC(=O)Cc1ccccc1` [Methyl phenylacetate], the EC50 at HarmOR31 stood at 29.5 µM; at HarmOR7, 107 µM.

The term EC50 denotes the concentration giving half of the maximal effect.

(Values after paper PMC8042770, “Odorant Receptors for Detecting Flowering Plant Cues Are Functionally Conserved across Moths and Butterflies” (Molecular Biology and Evolution, 2020).)
